Test results from the NIST ThermoML archive (doi:10.1016/j.jct.2019.06.032).

Assay: xn = mol fraction of the nth substance listed
Conditions: 101 kPa, Liquid; for viscosity: Capillary tube (Ostwald / Ubbelohde) method; for mass density: Vibrating tube method

NCCO [2-aminoethan-1-ol] + O
Conditions	mass density, 293.15 K [kg/m3]	mass density, 303.15 K [kg/m3]	mass density, 313.15 K [kg/m3]	mass density, 323.15 K [kg/m3]	mass density, 333.15 K [kg/m3]	viscosity, 293.15 K [mPa·s]	viscosity, 303.15 K [mPa·s]	viscosity, 313.15 K [mPa·s]	viscosity, 323.15 K [mPa·s]	viscosity, 333.15 K [mPa·s]
x1 = 0.1	1010.9	1007	1002.5	997.4	991.7	2.669	1.953	1.495	1.147	0.903
x1 = 0.1999	1021.1	1016	1010.6	1004.4	998	5.763	3.976	2.388	1.819	1.429
x1 = 0.2998	1027.1	1021	1014.3	1007.5	1000.5	10.28	6.221	4.011	3	2.268
x1 = 0.4	1029.4	1022.6	1015.5	1008.3	1000.8	15.22	9.814	6.589	4.621	3.387
x1 = 0.4998	1029.3	1022	1014.6	1007	999.4	19.75	12.4	8.077	5.671	4.071
x1 = 0.5995	1028.1	1020.3	1012.7	1004.9	997	22.83	14.17	9.474	6.412	4.784
x1 = 0.6982	1026.3	1018	1010.4	1002.8	994.9	24.37	15.25	10.05	7.035	4.978
x1 = 0.7974	1023.8	1015.1	1007.1	999.4	991.5	25.19	15.62	10.09	7.169	5.014
x1 = 0.8995	1021.2	1013	1005.1	997.2	988.1	24.62	15.17	10.08	7.12	5.001
x1 = 1	1016.9	1009.5	1001.1	992.7	984.3	23.79	14.83	9.89	6.872	4.99

CCN(CC)CCO [(diethylamino)ethanol] + NCCO
Conditions	mass density, 293.15 K [kg/m3]	mass density, 303.15 K [kg/m3]	mass density, 313.15 K [kg/m3]	mass density, 323.15 K [kg/m3]	mass density, 333.15 K [kg/m3]	viscosity, 293.15 K [mPa·s]	viscosity, 303.15 K [mPa·s]	viscosity, 313.15 K [mPa·s]	viscosity, 323.15 K [mPa·s]	viscosity, 333.15 K [mPa·s]
x2 = 0	891.2	874.4	865.4	856.4	845.6	4.848	3.41	2.466	1.855	1.431
x2 = 0.1003	897.2	881.4	869.8	859.4	849.2	6.52	3.543	2.619	1.952	1.568
x2 = 0.2004	906.9	892.2	881.6	871.1	861	8.275	3.892	2.982	2.149	1.746
x2 = 0.2993	920.7	906.2	897.8	887.6	879.7	10.42	4.495	3.501	2.658	2.107
x2 = 0.4003	931.6	918	910.5	901.2	891.8	12.32	5.526	4.04	2.925	2.426
x2 = 0.5001	941	929.9	920.1	910.2	902.3	13.76	6.483	4.629	3.314	2.767
x2 = 0.6001	952.2	942.1	935	926.9	915.8	15.98	7.382	5.072	3.651	3.007
x2 = 0.7007	965.8	954.2	944.6	935.9	927.9	17.27	8.567	5.754	4.046	3.273
x2 = 0.8001	981.8	971.6	963	954.3	946.2	19.77	10.57	7.21	4.954	3.651
x2 = 0.9	999.8	991.5	982.7	974.3	965.5	22.75	13.44	8.826	6.018	4.413

CCN(CC)CCO [(diethylamino)ethanol] + O
Conditions	mass density, 293.15 K [kg/m3]	mass density, 303.15 K [kg/m3]	mass density, 313.15 K [kg/m3]	mass density, 323.15 K [kg/m3]	mass density, 333.15 K [kg/m3]	viscosity, 293.15 K [mPa·s]	viscosity, 303.15 K [mPa·s]	viscosity, 313.15 K [mPa·s]	viscosity, 323.15 K [mPa·s]	viscosity, 333.15 K [mPa·s]
x1 = 0.1001	982	974.2	966.6	958.5	950.1	7.938	5.548	3.741	2.623	1.94
x1 = 0.2005	962.4	953	944.3	935	925.6	17.02	10.01	6.284	4.233	2.937
x1 = 0.2997	946.6	936.8	926.9	917.5	907.6	20.5	11.01	7.194	4.584	3.15
x1 = 0.3978	933.4	923.2	913.9	903.7	893.9	20.32	9.991	6.145	4.058	2.963
x1 = 0.4997	922.2	912	901.8	892	882.4	17.73	9.074	5.477	3.605	2.593
x1 = 0.5992	914.4	903.2	892.8	882.3	872.5	14.8	8.421	5.078	3.05	2.4
x1 = 0.6897	906.3	894.8	884.2	873.9	864.7	12.42	7.125	4.663	2.692	2.102
x1 = 0.7997	899.6	887.4	876.9	867.4	857.3	9.723	6.002	3.878	–	1.794
x1 = 0.8997	895.5	880.8	870.7	861.4	851.9	7.341	4.868	3.402	2.141	1.619
x1 = 1	891.2	874.4	865.4	856.4	845.6	4.848	3.41	2.466	1.855	1.431
